# Measurements from ChEMBL document CHEMBL1141458, “Prospects for metabotropic glutamate 1 receptor antagonists in the treatment of neuropathic pain” (J Med Chem, 2007).
# pEC50, pIC50: −log10 of the molar value.
# What was measured:
# Format in all cases: functional
# [1] = target: T1, Metabotropic glutamate receptor 1 (Homo sapiens, UniProt Q13255); test: Antagonist activity at mGlu1 receptor
# [2] = target: T1, Metabotropic glutamate receptor 1; test: Antagonist activity at human mGlu1 receptor
# [3] = target: T2, Metabotropic glutamate receptor 2 (Homo sapiens, UniProt Q14416); test: Antagonist activity at mGlu2 receptor
# Mus musculus [4] = test: Effect on pain in po dosed mouse in late phase of formalin assay
# Rattus norvegicus [5] = test: Effect on pain in ip dosed rat in late phase of formalin assay
# Mus musculus [6] = test: Effect on pain in po dosed mouse in early phase of formalin assay
# [7] = target: T1, Metabotropic glutamate receptor 1; test: Antagonist activity at human mGlu1b receptor
# Rattus norvegicus [8] = test: Effect on CFA-induced hyperalgesia in ip dosed rat
# Rattus norvegicus [9] = test: Effect on carrageenan model of inflammatory pain in ip dosed rat
# [10] = target: T2, Metabotropic glutamate receptor 2; test: Agonist activity at mGlu2 receptor
# T1 sequence (Q13255 whole entry): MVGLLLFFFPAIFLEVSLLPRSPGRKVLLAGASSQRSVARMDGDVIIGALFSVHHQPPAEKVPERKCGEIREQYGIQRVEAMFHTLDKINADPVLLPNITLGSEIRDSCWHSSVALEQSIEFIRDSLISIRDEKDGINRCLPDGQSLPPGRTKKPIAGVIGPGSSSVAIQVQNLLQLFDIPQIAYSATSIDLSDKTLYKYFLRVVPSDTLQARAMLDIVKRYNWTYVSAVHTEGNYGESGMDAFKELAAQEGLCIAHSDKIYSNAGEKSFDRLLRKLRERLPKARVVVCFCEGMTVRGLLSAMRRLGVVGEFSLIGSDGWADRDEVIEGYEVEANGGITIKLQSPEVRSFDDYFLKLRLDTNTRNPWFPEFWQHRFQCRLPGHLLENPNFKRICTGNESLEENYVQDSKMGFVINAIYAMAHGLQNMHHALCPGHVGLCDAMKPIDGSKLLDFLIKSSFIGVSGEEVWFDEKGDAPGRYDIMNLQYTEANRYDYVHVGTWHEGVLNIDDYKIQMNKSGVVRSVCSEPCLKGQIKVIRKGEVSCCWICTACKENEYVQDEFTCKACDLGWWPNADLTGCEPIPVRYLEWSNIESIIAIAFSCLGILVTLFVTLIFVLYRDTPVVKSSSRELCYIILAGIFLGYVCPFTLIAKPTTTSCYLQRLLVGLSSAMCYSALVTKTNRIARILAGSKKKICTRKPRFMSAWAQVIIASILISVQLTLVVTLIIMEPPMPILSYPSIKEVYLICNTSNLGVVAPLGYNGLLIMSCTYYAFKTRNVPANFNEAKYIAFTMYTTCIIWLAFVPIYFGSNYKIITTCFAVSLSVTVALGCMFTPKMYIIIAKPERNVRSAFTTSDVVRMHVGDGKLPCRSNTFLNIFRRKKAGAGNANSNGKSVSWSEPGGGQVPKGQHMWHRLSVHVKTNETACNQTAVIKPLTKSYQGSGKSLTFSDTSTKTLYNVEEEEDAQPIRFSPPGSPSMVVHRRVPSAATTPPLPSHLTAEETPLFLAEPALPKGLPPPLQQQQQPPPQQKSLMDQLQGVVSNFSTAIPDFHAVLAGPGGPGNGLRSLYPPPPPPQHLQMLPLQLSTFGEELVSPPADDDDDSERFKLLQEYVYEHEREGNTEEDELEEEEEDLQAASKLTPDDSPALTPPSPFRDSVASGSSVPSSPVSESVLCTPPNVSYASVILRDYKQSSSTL
# T2 sequence (Q14416 whole entry): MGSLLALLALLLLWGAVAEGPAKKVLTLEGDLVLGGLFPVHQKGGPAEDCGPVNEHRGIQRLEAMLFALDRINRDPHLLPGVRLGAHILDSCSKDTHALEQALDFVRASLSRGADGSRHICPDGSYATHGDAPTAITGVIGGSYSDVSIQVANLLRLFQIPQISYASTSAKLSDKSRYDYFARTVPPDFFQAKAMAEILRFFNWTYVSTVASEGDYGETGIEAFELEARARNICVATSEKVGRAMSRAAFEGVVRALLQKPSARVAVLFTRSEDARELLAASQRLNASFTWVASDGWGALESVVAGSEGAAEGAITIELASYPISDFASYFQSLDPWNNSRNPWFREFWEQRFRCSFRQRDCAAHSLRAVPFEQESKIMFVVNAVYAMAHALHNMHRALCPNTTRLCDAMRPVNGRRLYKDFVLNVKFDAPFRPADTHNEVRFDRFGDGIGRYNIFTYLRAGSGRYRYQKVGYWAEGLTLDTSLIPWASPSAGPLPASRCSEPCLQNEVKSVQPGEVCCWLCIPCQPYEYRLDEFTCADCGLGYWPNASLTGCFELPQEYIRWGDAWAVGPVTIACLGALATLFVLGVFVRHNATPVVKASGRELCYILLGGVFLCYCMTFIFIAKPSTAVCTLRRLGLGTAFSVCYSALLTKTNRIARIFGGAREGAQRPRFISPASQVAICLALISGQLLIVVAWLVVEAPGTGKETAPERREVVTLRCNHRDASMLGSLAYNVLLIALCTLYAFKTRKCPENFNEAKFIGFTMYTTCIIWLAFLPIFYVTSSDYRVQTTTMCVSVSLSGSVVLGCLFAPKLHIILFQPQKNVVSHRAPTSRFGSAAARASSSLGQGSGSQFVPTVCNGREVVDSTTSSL
smiles,measurement,setting,value
N[C@H](C(=O)O)c1ccc(O)c(C(=O)O)c1,pIC50,[1],4.40
CO[C@H]1CC[C@@H](C(=O)c2ccc3nc4c(cc3c2)CCCO4)CC1,pIC50,[2],8.92
C=C1C[C@@H]2COC(=O)[C@]2(Cc2ccc3ccccc3c2)C1,pIC50,[1],6.80
Cc1c(C2=CCC(C(=O)N(C)C(C)C)CC2)nnn1-c1cccnc1F (configuration not stated),pIC50,[1],8.22
COc1ccc(Nc2ncnc3ccc(OC)cc23)cc1,pIC50,[1],7.02
C[C@@](N)(C(=O)O)c1ccc(C(=O)O)cc1,pIC50,[1],5.37
same,pIC50,[3],5.37
CCCOC(=O)c1[nH]c(C)c(C(=O)OC(C)C(C)(C)C)c1C (configuration not stated),ED50,Mus musculus [4],0.3 mg/kg
same,ED50,Rattus norvegicus [5],3 mg/kg
same,ED50,Mus musculus [6],0.3 mg/kg
CCOC(=O)C12CC1/C(=N\O)c1ccccc1O2 (configuration not stated),pIC50,[7],5.18
CCc1ccc(-n2cnc3c(sc4nccc(N(C)C)c43)c2=O)cc1,ED50,Rattus norvegicus [5],15 µmol/kg
same,ED50,Rattus norvegicus [8],15 µmol/kg
same,ED50,Rattus norvegicus [9],11 µmol/kg
N[C@H](C(=O)O)c1ccc(C(=O)O)c(O)c1,pEC50,[10],4.32
NC(CC1c2ccccc2Sc2ccccc21)(C(=O)O)C1CC(C(=O)O)C1 (configuration not stated),pIC50,[1],6.00
N[C@H](C(=O)O)c1ccc(C(=O)O)cc1,pIC50,[1],5.00
